Non-standard residues stand in square brackets, D forms with d. Residues, ends and D or L forms follow the SMILES beside them. *: point of attachment. Bn = c1ccc(C*)cc1
Legend:
[1] = tested on: plasma GH levels; test: Peptide effects on NEMBUTAL-stimulated GH levels in anesthetized rats (sc bolus, jugular blood, RIA); format: in vivo, rat
Method: (§1) In this evaluation, the procedures described by W. A. Murphy et al., Endocrinology, 109:491-495 (1980), were employed.
In growth hormone (GH) experiments, male rats (Charles Rivers) were anesthetized with NEMBUTAL® (5 mg per 100 g/BW) which also served to maintain stimulated plasma GH levels. Exactly 30 minutes after the rats were anesthetized, 0.5 ml of saline or the test peptide in saline was administered as a sc bolus. A 1 ml blood sample was drawn from the jugular vein 15 minutes after the injection. For examining blocking effects of the analog on somatostatin, the cyclic peptide was given five minutes prior to somatostatin. GH levels were determined using NIADDKD rat GH RIA components.

[2] = tested on: somatostatin; test: Somatostatin antagonist activity (blocking of exogenous somatostatin effects); format: in vivo, rats; settings: result in words
[3] = tested on: insulin release; test: Basal hepatic portal insulin levels in fasted rats; format: in vivo, rat; settings: after treatment, result in words
Excerpt: as §1

[4] = tested on: glucagon release; test: Basal hepatic portal glucagon levels in fasted rats; format: in vivo, rat; settings: after treatment, result in words
Excerpt: as §1

C[C@@H](O)[C@@H]1NC(=O)[C@H](CCCCN)NC(=O)[C@@H](Cc2c[nH]c3ccccc23)NC(=O)[C@H](Cc2ccccc2)NC(=O)[C@@H]2CCCN2C1=O [Cyclo(Pro--Phe--D-Trp--Lys--Thr), cyclo(L-prolyl-L-phenylalanyl-D-tryptophyl-L-lysyl-L-threonyl)] (cyclo(F[dW]KTP))
GH (ng/ml) ([1]; first experiment, dose 2 μg/100 g body weight sc, saline 389 ± 60): 730 + 110 ng/ml | GH ([1]; first experiment, dose 10 μg/100 g body weight sc, saline 389 ± 60): 459 ± 100 ng/mL | GH ([1]; second experiment, dose 0.3 μg/100 g body weight sc, saline 648 ± 177): 1265 ± 318 ng/mL | GH ([1]; second experiment, dose 0.3 μg/100 g body weight sc, saline 648 ± 177, listed as cyclo(Pro-Phe-D-Trp-Lys-Thr)): 1265 ± 318 ng/mL | GH ([1]; second experiment, dose 0.6 μg/100 g body weight sc, saline 648 ± 177): 1072 ± 187 ng/mL | GH ([1]; second experiment, dose 1.2 μg/100 g body weight sc, saline 648 ± 177): 728 ± 143 ng/mL | somatostatin antagonist activity [2]: has somatostatin antagonist activity

C[C@@H](OCc1ccccc1)[C@@H]1NC(=O)[C@H](CCCCN)NC(=O)[C@@H](Cc2c[nH]c3ccccc23)NC(=O)[C@H](Cc2ccccc2)NC(=O)[C@@H]2CCCN2C1=O [Cyclo[Pro--Phe--D-Trp--Lys--Thr(Bzl)], cyclo(L-prolyl-L-phenylalanyl-D-tryptophyl-L-lysyl-O-benzyl-L-threonyl)] (cyclo(F[dW]KT(Bn)P))
plasma growth hormone levels ([1]; NEMBUTAL-anesthetized and stimulated rats, after injection, result in words): increased | GH ([1]; third experiment, dose 0.2 μg/100 g body weight sc, saline 497 ± 80): 1724 ± 393 ng/mL | GH ([1]; third experiment, dose 0.2 μg/100 g body weight sc, saline 497 ± 80, listed as cyclo[Pro-Phe-D-Trp-Lys-Thr(Bzl)]): 1724 ± 383 ng/mL | GH ([1]; third experiment, dose 0.6 μg/100 g body weight sc, saline 497 ± 80): 812 ± 163 ng/mL | somatostatin antagonist activity [2]: very effective somatostatin antagonist | basal hepatic portal insulin levels [3]: significantly increased | basal hepatic portal glucagon levels [4]: significantly increased

C[C@H](N)C(=O)NCC(=O)N[C@H]1CSSC[C@@H](C(=O)O)NC(=O)[C@H](CO)NC(=O)[C@H]([C@@H](C)O)NC(=O)[C@H](Cc2ccccc2)NC(=O)[C@H]([C@@H](C)O)NC(=O)[C@H](CCCCN)NC(=O)[C@H](Cc2c[nH]c3ccccc23)NC(=O)[C@H](Cc2ccccc2)NC(=O)[C@H](Cc2ccccc2)NC(=O)[C@H](CC(N)=O)NC(=O)[C@H](CCCCN)NC1=O [Somatostatin, somatostatin]
GH ([1]; first experiment, dose 0.4 μg/100 g body weight sc, blood 15 min after injection, saline 389 ± 60): 152 ± 51 ng/mL | GH ([1]; third experiment, dose 0.5 μg/100 g body weight sc, saline 497 ± 80): 173 ± 46 ng/mL

Reference: US4505897A, “Cyclic pentapeptides displaying somatostatin antagonism and method of treatment of mammals therewith” (The Administrators of the Tulane Educational Fund, priority 1983, dated 1985)
